Holding throughout (type): binding
Test [1] addresses T1, SARS-CoV-2 NSP3 Mac1 (Severe acute respiratory syndrome coronavirus 2, UniProt P0DTD1). Nature of the test: biochemical. As to conditions: for Ki: Ki estimation from HTRF-derived IC50, Cheng-Prusoff, peptide 400nM, Kd 2.68µM.
For test [2], the target named is T1, SARS-CoV-2 NSP3 Mac1. To be noted: for Refined occupancy: ligand occupancy after refinement (phenix.refine).
Test [3] has as its target T1, SARS-CoV-2 NSP3 Mac1. More on the design: contains a conserved macrodomain enzyme (Mac1). As to conditions: for Spearman est (compound concentration vs apparent Tm): DSF dose responsiveness, 1 µM nsp3 mac1, adj p given. The procedure, abridged:
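ΔTma values are thermal shifts relative to a co-located DMSO-only control, read with 5 µM Fluorescent Yellow dye. Each compound was tested in triplicate over seven concentrations (two-fold steps, top 1,000 or 100 μM). Spearman correlation of concentration versus ΔTma tested whether the shift was dose-responsive.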

The mark [4] stands for this setting: HTRF ADPr-peptide displacement from SARS-CoV-2 Mac1, read-out: IC50.
[5] abbreviates: PanDDA event map, 1 minus background density correction, crystal soaking of Mac1.
[6] abbreviates: true hit = binding in crystallographic soaking or the HTRF-based binding assay.
[7] abbreviates: HTRF, several values in a cell are separate determinations, read-out: IC50.
Where [8] appears, read: overall hit flag: binding in crystallographic soaking or the HTRF-based binding assay.
[9] abbreviates: maximal thermal upshift vs DMSO control.
Where [10] appears, read: PanDDA 1-BDC value of the event, crystal soak, compound concentration 100 mM, per dataset.
Where [11] appears, read: crystal soak, compound concentration 100 mM, per dataset.
Where [12] appears, read: ligand modeled in the crystal structure, crystal soak, compound concentration 100 mM, per dataset.
Setting [13] is: ligand modeled from this dataset, compound concentration 100 mM, Echo dispense volume 40 or 80 nl.

This is an account of results in paper PMC9926234, “Iterative computational design and crystallographic screening identifies potent inhibitors targeting the Nsp3 macrodomain of SARS-CoV-2” (Proceedings of the National Academy of Sciences of the …, 2023).

Where “and” joins values, the source holds several entries; their conditions need not be identical. Identical values can stand only once. Like-named read-outs stand apart in the source and are kept apart here.

Broadly, the IC50 is the midpoint of a concentration-inhibition curve. Broadly, the Ki is a dissociation constant, usually derived from enzyme kinetics or from competition with a known ligand. Turning to `O=C(OCCN1CCOC1=O)c1ncnc2[nH]ccc12` [Z8207], the IC50 turned out to be 60 µM on SARS-CoV-2 NSP3 Mac1 [1] (setting [4]) and 60.1 µM on SARS-CoV-2 NSP3 Mac1 [1] (HTRF, read-out: IC50). Further, the Ki on SARS-CoV-2 NSP3 Mac1 [1] (read-out: Ki***) was 52.3 µM. Besides, the 1-BDC at SARS-CoV-2 NSP3 Mac1 [2] (setting [5]) is given as 0.38. At SARS-CoV-2 NSP3 Mac1 [2] (crystal soaking of Mac1), this compound yielded a Refined occupancy of 76. Also, the “HIT*” value on SARS-CoV-2 NSP3 Mac1 [2] (setting [6]) is “Y”. Also, the “Spearman est (compound concentration vs apparent Tm)” value on SARS-CoV-2 NSP3 Mac1 [3] is listed as 0.99. The “DSF max dTma” value on SARS-CoV-2 NSP3 Mac1 [3] (maximal thermal upshift) was 2.51 ˚C.
Consider `OC[C@H]1CCCN(c2ncnc3[nH]c4cc(F)ccc4c23)C1` [Z7873], for which the IC50 was ≤ 90 µM and 90 µM on SARS-CoV-2 NSP3 Mac1 [1] (setting [4]); 90.3 µM on SARS-CoV-2 NSP3 Mac1 [1] (setting [7]). Also, the inhibitory constant (Ki) on SARS-CoV-2 NSP3 Mac1 [1] (read-out: Ki***) is 78.6 µM. In addition, the 1-BDC is on record as 0.06 on SARS-CoV-2 NSP3 Mac1 [2] (PanDDA event map background density correction, crystal soak, Compound_concentration 100 mM, PanDDA run dmso_34) and 0.06 on SARS-CoV-2 NSP3 Mac1 [2] (setting [5]). For the same compound, at SARS-CoV-2 NSP3 Mac1 [2] (crystal soak, Compound_concentration 100 mM, Echo dispense 40 nl, PanDDA run dmso_34), the “PanDDA hit?” value is “TRUE”. Moreover, the “Modeled?” value on SARS-CoV-2 NSP3 Mac1 [2] (ligand modeled in crystal structure, crystal soak, Compound_concentration 100 mM, PanDDA run dmso_34) is “TRUE”. The compound further came in with a Refined occupancy at SARS-CoV-2 NSP3 Mac1 [2] (crystal soaking of Mac1) of 12. For the same compound, the “HIT*” value at SARS-CoV-2 NSP3 Mac1 [2] (setting [8]) is reported as “Y”. Further, the “Spearman est (compound concentration vs apparent Tm)” value at SARS-CoV-2 NSP3 Mac1 [3] was 0.95. Also, the “DSF max dTma” value on SARS-CoV-2 NSP3 Mac1 [3] (setting [9]) was found to be 1.5 °C.
Consider `O=C(O)CC1CN(c2ncnc3[nH]ccc23)CCO1` (stereo not shown) [Z9572], for which the IC50 on SARS-CoV-2 NSP3 Mac1 [1] (setting [4]) is 227 µM and 234 µM; at SARS-CoV-2 NSP3 Mac1 [1] (setting [7]), 227 µM. Moreover, the Ki on SARS-CoV-2 NSP3 Mac1 [1] (read-out: Ki***) was 197 µM. The compound also yielded a 1-BDC on SARS-CoV-2 NSP3 Mac1 [2] (setting [5]) of 0.09. In addition, the “Modeled?” value on SARS-CoV-2 NSP3 Mac1 [2] (ligand modeled in structure, crystal soak, Compound_concentration 100 mM) is recorded as “TRUE”. The same compound came in with a Refined occupancy at SARS-CoV-2 NSP3 Mac1 [2] (crystal soaking of Mac1) of 18. Also, the “HIT*” value at SARS-CoV-2 NSP3 Mac1 [2] (setting [8]) is listed as “Y”. The “Spearman est (compound concentration vs apparent Tm)” value on SARS-CoV-2 NSP3 Mac1 [3] came to 0.62. The “DSF max dTma” value on SARS-CoV-2 NSP3 Mac1 [3] (setting [9]) amounted to 0.66 °C.
At SARS-CoV-2 NSP3 Mac1 [1] (IC50, HTRF ADPr-peptide displacement from SARS-CoV-2 Mac1), `O=C(Nc1ccccc1)Nc1ccc(C(=O)NC2c3cccc(O)c3CC2C(=O)O)cc1` (stereo not shown) [Z8539_0023] had an IC50 of 0.5 µM. On SARS-CoV-2 NSP3 Mac1 [1] (Ki***), the Ki was 0.4 µM. Moreover, the 1-BDC on SARS-CoV-2 NSP3 Mac1 [2] (setting [10]) and on SARS-CoV-2 NSP3 Mac1 [2] (setting [5]) was 0.17 throughout. Also, the “PanDDA hit?” value at SARS-CoV-2 NSP3 Mac1 [2] (setting [11]) is reported as “TRUE”. The “Modeled?” value on SARS-CoV-2 NSP3 Mac1 [2] (setting [12]) is on record as “TRUE”. Also, the Refined occupancy at SARS-CoV-2 NSP3 Mac1 [2] (crystal soaking of Mac1) was 34. The “HIT*” value on SARS-CoV-2 NSP3 Mac1 [2] (setting [6]) is on record as “Y”. In addition, at SARS-CoV-2 NSP3 Mac1 [3] (DSF), the thermal upshift stood at 9 °C. For the same compound, the “Spearman est (compound concentration vs apparent Tm)” value at SARS-CoV-2 NSP3 Mac1 [3] was 0.81. Moreover, the “DSF max dTma” value on SARS-CoV-2 NSP3 Mac1 [3] (maximal thermal upshift) is listed as 9.9 ˚C.
For the compound `O=C(NC1c2cccc(O)c2CC1C(=O)O)c1cnc(NC2CCOCC2)cn1` (stereo not shown) [8539_0007], the inhibition constant (Ki) at SARS-CoV-2 NSP3 Mac1 [1] (read-out: Ki***) was 5.6 µM. In addition, the 1-BDC on SARS-CoV-2 NSP3 Mac1 [2] (setting [10]) is 0.2; at SARS-CoV-2 NSP3 Mac1 [2] (setting [5]), 0.19. The “PanDDA hit?” value on SARS-CoV-2 NSP3 Mac1 [2] (setting [11]) was “TRUE”. For the same compound, the “Modeled?” value on SARS-CoV-2 NSP3 Mac1 [2] (setting [13]) is given as “TRUE”. Moreover, the Refined occupancy on SARS-CoV-2 NSP3 Mac1 [2] (crystal soaking of Mac1) is recorded as 60. For the same compound, at SARS-CoV-2 NSP3 Mac1 [2] (setting [6]), the “HIT*” value was “Y”. Also, the “Spearman est (compound concentration vs apparent Tm)” value at SARS-CoV-2 NSP3 Mac1 [3] was determined as 0.24. Further, the “DSF max dTma” value at SARS-CoV-2 NSP3 Mac1 [3] (maximal thermal upshift) was 3.42 ˚C.
For `CNC(=O)Nc1ccc(C(=O)NC2c3ccccc3CC2C(=O)O)cc1` (stereo not shown) [Z8515], the IC50 was found to be 7.9 µM on SARS-CoV-2 NSP3 Mac1 [1] (setting [4]) and 10.3 µM on SARS-CoV-2 NSP3 Mac1 [1] (setting [7]). Further, at SARS-CoV-2 NSP3 Mac1 [1] (read-out: Ki***), the Ki was 9 µM. In addition, the 1-BDC at SARS-CoV-2 NSP3 Mac1 [2] (setting [10]) and on SARS-CoV-2 NSP3 Mac1 [2] (setting [5]) was 0.09 each time. Also, the “PanDDA hit?” value at SARS-CoV-2 NSP3 Mac1 [2] (setting [11]) is reported as “TRUE”. Besides, the “Modeled?” value on SARS-CoV-2 NSP3 Mac1 [2] (setting [12]) was “TRUE”. The Refined occupancy on SARS-CoV-2 NSP3 Mac1 [2] (crystal soaking of Mac1) amounted to 18. Further, the “HIT*” value on SARS-CoV-2 NSP3 Mac1 [2] (setting [8]) is on record as “Y”. The “Spearman est (compound concentration vs apparent Tm)” value at SARS-CoV-2 NSP3 Mac1 [3] amounted to 0.98. Besides, the “DSF max dTma” value on SARS-CoV-2 NSP3 Mac1 [3] (setting [9]) came out at 3.71 °C.
With `O=C1COc2cc(C(=O)NC3c4cccc(O)c4CC3C(=O)O)ccc2N1` (stereo not shown) [8539_0014], on SARS-CoV-2 NSP3 Mac1 [1] (read-out: Ki***), the Ki is 24.3 µM. Further, the 1-BDC on SARS-CoV-2 NSP3 Mac1 [2] (setting [10]) and at SARS-CoV-2 NSP3 Mac1 [2] (setting [5]) was 0.29 in each case. The “PanDDA hit?” value at SARS-CoV-2 NSP3 Mac1 [2] (setting [11]) is reported as “TRUE”. For the same compound, on SARS-CoV-2 NSP3 Mac1 [2] (setting [13]), the “Modeled?” value was “TRUE”. For the same compound, on SARS-CoV-2 NSP3 Mac1 [2] (crystal soaking of Mac1), the Refined occupancy worked out at 58. At SARS-CoV-2 NSP3 Mac1 [2] (setting [6]), the “HIT*” value is reported as “Y”. Moreover, at SARS-CoV-2 NSP3 Mac1 [3], the “Spearman est (compound concentration vs apparent Tm)” value amounted to 0.59. In addition, the “DSF max dTma” value at SARS-CoV-2 NSP3 Mac1 [3] (maximal thermal upshift) is 1.83 ˚C.
For `O=C(Nc1ccc(C(=O)NCc2c(C(=O)O)oc3ccccc23)cc1)NC1CC1` [Z8539_0026], the IC50 turned out to be 84 µM at SARS-CoV-2 NSP3 Mac1 [1] (setting [4]) and 83.8 µM at SARS-CoV-2 NSP3 Mac1 [1] (HTRF, read-out: IC50). Moreover, at SARS-CoV-2 NSP3 Mac1 [1] (read-out: Ki***), the Ki was 72.9 µM. Also, the 1-BDC at SARS-CoV-2 NSP3 Mac1 [2] (setting [10]) is 0.3; on SARS-CoV-2 NSP3 Mac1 [2] (setting [5]), 0.33. For the same compound, the “PanDDA hit?” value on SARS-CoV-2 NSP3 Mac1 [2] (setting [11]) is “TRUE”. For the same compound, at SARS-CoV-2 NSP3 Mac1 [2] (setting [13]), the “Modeled?” value is “TRUE”. The compound further displayed a Refined occupancy at SARS-CoV-2 NSP3 Mac1 [2] (crystal soaking of Mac1) of 66. Besides, the “HIT*” value at SARS-CoV-2 NSP3 Mac1 [2] (setting [6]) is reported as “Y”. In addition, the “Spearman est (compound concentration vs apparent Tm)” value at SARS-CoV-2 NSP3 Mac1 [3] is 0.37. Moreover, at SARS-CoV-2 NSP3 Mac1 [3] (maximal thermal upshift), the “DSF max dTma” value is listed as 3.52 ˚C.
